Tests used:
[1] = biological target: T1, wt human LRRK2, catalytic site (Homo sapiens, UniProt Q5S007); assay: TR-FRET LanthaScreen Tb Kinase Activity Assay, LRRK2 inhibition; format: biochemical; conditions: 2 nM wt human LRRK2, 400 nM peptide, 38 μM ATP
T1 construct: wt human LRRK2, catalytic site, catalytic site (ThermoFisher/USA); purchased ThermoFisher
Procedure, shortened: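 Fluorescein-ERM (LRRKtide) peptide (400 nM) phosphorylated by 2 nM wt human LRRK2 catalytic site with 38 μM ATP in 1× Kinase Buffer A, 120 min at room temperature after 15 min compound–kinase preincubation. EDTA plus Tb-anti-pLRRKtide antibody added, read after 60 min; inhibition from TR-FRET emission ratios.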

Caco-2 cells = assay: Caco-2 bidirectional permeability; format: in vitro ADME; conditions: for Caco-2 ER: Efflux Ratio=Papp(BA)/Papp(AB); for Caco-2 A2B (10^−6 cm/s): apical to basolateral; for Caco-2 A2B (10^−6 cm/s) / Caco-2 B2A (10^−6 cm/s): 2 hours, pH 7.4; for Caco-2 B2A (10^−6 cm/s): basolateral to apical
Procedure, shortened: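 Caco-2 monolayers were grown 21–28 days on PET inserts and run in duplicate in HBSS with 10 mM HEPES, pH 7.4. Test compound was dosed bidirectionally at […] for 2 h at 37 °C; quantification was by LC-MS/MS. Papp and efflux ratio (B-A/A-B) were calculated, with lucifer yellow monolayer integrity checks.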

human hepatocyte = assay: Human hepatocyte stability, predicted hepatic clearance (h-Hept CL predict); format: in vitro ADME; conditions: human hepatocytes, 0.5×10^6 cells/mL, 1 μM, values without asterisk
Procedure, shortened: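 Cryopreserved human hepatocytes, 0.5×10^6 viable cells/mL in William's E/GlutaMAX, incubated with compound at 1 μM final, duplicates. Sampling at 0-120 min, LC/MS/MS parent loss gives t1/2, converted to CLint and scaled to predicted hepatic clearance (well-stirred model, fub assumed 1).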

T1 sequence (Q5S007 1879-2138 limits assumed): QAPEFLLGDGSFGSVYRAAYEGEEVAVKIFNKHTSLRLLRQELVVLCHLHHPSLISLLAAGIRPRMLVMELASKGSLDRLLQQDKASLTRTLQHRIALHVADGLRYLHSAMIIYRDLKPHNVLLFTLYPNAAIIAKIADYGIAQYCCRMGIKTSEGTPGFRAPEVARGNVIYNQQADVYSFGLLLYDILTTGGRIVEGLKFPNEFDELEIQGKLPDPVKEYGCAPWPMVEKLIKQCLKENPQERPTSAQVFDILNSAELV

`Fc1cccc(F)c1C1=Nc2c(Cl)n[nH]c2-c2cc(N3CCOCC3)ccc2N1` (single isomer, unassigned) [Example 35, 4-(3-chloro-5-(2,6-difluorophenyl)-1,6-dihydrobenzo[d]pyrazolo[3,4-f][1,3]diazepin-9-y1)morpholine] was tested, and the IC50 [1] was under 1 nM, the “Caco-2 ER” value (Caco-2 cells) was “L (L (Likely)”: ER≥2.5)” and the “Caco-2 A2B (10^−6 cm/s)” value (Caco-2 cells) was “H (H (High permeability)”: A2B (B2A)>5)”. The “Caco-2 B2A (10^−6 cm/s)” value (Caco-2 cells) was “H (H (High permeability)”: A2B (B2A)>5)” and the “hHep Cl (mL/min/kg)” value (human hepatocyte) was “L (L (Low Cl)”: Hep Cl (mL/min/kg)<6.3)”.

With `Cc1n[nH]c2c1N=C(c1c(F)cccc1F)Nc1ccc(N3CCO[C@H](C(C)(C)O)C3)cc1-2` (single isomer, unassigned) [Example 36] the IC50 [1] was 1 to 100 nM, the “Caco-2 ER” value (Caco-2 cells) was “L (L (Likely)”: ER≥2.5)” and the “Caco-2 A2B (10^−6 cm/s)” value (Caco-2 cells) was “M (M (Moderate permeability)”: 1≤A2B (B2A)≤5)”. For the same compound, the “Caco-2 B2A (10^−6 cm/s)” value (Caco-2 cells) was “H (H (High permeability)”: A2B (B2A)>5)” and the “hHep Cl (mL/min/kg)” value (human hepatocyte) was “L (L (Low Cl)”: Hep Cl (mL/min/kg)<6.3)”.

In the case of `Cc1n[nH]c2c1N=C(c1c(F)cccc1F)Nc1c-2cc(N2CCO[C@@H](C(C)(C)O)C2)nc1C` (single isomer, unassigned) [Example 39], the IC50 [1] is reported as under 1 nM, the “Caco-2 ER” value (Caco-2 cells) is reported as “L (L (Likely)”: ER≥2.5)” and the “Caco-2 A2B (10^−6 cm/s)” value (Caco-2 cells) is reported as “M (M (Moderate permeability)”: 1≤A2B (B2A)≤5)”. For the same compound, the “Caco-2 B2A (10^−6 cm/s)” value (Caco-2 cells) was “H (H (High permeability)”: A2B (B2A)>5)” and the “hHep Cl (mL/min/kg)” value (human hepatocyte) was “L (L (Low Cl)”: Hep Cl (mL/min/kg)<6.3)”.

With `Cc1n[nH]c2c1N=C(c1c(F)cccc1F)Nc1cnc(N3CCS(=O)(=O)CC3)cc1-2` [Example 2, 4-[8-(2,6-difluorophenyl)-5-methyl-3,4,7,9,12-pentazatricyclo[8.4.0.02,6]tetradeca-1(10),2(6),4,7,11,13-hexaen-13-y1]-1,4-thiazinane 1,1-dioxide] the IC50 [1] was under 1 nM, the “Caco-2 ER” value (Caco-2 cells) was “L (L (Likely)”: ER≥2.5)” and the “Caco-2 A2B (10^−6 cm/s)” value (Caco-2 cells) was “L (L (Low permeability)”: A2B (B2A)<1)”. For the same compound, the “Caco-2 B2A (10^−6 cm/s)” value (Caco-2 cells) was “H (H (High permeability)”: A2B (B2A)>5)” and the “hHep Cl (mL/min/kg)” value (human hepatocyte) was “L (L (Low Cl)”: Hep Cl (mL/min/kg)<6.3)”.

`Cc1n[nH]c2c1N=C(c1c(F)cccc1F)Nc1cnc(N3C[C@@H]4C[C@H]3CO4)cc1-2` [Example 6, (1S,4S)-5-[8-(2,6-difluorophenyl)-5-methyl-3,4,7,9,12-pentazatricyclo[8.4.0.02,6]tetradeca-1(10),2(6),4,7,11,13-hexaen-13-y1]-2-oxa-5-azabicyclo[2.2.1]heptane] was tested, and the IC50 [1] was 1 to 100 nM, the “Caco-2 ER” value (Caco-2 cells) was “L (L (Likely)”: ER≥2.5)” and the “Caco-2 A2B (10^−6 cm/s)” value (Caco-2 cells) was “M (M (Moderate permeability)”: 1≤A2B (B2A)≤5)”. For the same compound, the “Caco-2 B2A (10^−6 cm/s)” value (Caco-2 cells) was “H (H (High permeability)”: A2B (B2A)>5)” and the “hHep Cl (mL/min/kg)” value (human hepatocyte) was “L (L (Low Cl)”: Hep Cl (mL/min/kg)<6.3)”.

In the case of `[2H]C1([2H])OC([2H])([2H])C([2H])([2H])N(c2cc3c(cn2)NC(c2c(F)cccc2F)=Nc2c(C)n[nH]c2-3)C1([2H])[2H]` [Example 14, 2,2,3,3,5,5,6,6-octadeuterio-4-[8-(2,6-difluorophenyl)-5-methyl-3,4,7,9,12-pentazatricyclo[8.4.0.02,6]tetradeca-1(10),2(6),4,7,11,13-hexaen-13-yl]morpholine], the IC50 [1] is reported as under 1 nM, the “Caco-2 ER” value (Caco-2 cells) is reported as “L (L (Likely)”: ER≥2.5)” and the “Caco-2 A2B (10^−6 cm/s)” value (Caco-2 cells) is reported as “H (H (High permeability)”: A2B (B2A)>5)”. For the same compound, the “Caco-2 B2A (10^−6 cm/s)” value (Caco-2 cells) was “H (H (High permeability)”: A2B (B2A)>5)” and the “hHep Cl (mL/min/kg)” value (human hepatocyte) was “L (L (Low Cl)”: Hep Cl (mL/min/kg)<6.3)”.

In the case of `Cc1n[nH]c2c1N=C(c1c(F)cccc1F)Nc1cnc(N3CCC[C@@H](C#N)C3)cc1-2` [Example 18, (3R)-1-[8-(2,6-difluorophenyl)-5-methyl-3,4,7,9,12-pentazatricyclo[8.4.0.02,6]tetradeca-1(10),2(6),4,7,11,13-hexaen-13-yl]piperidine-3-carbonitrile], the IC50 [1] is reported as under 1 nM, the “Caco-2 ER” value (Caco-2 cells) is reported as “L (L (Likely)”: ER≥2.5)” and the “Caco-2 A2B (10^−6 cm/s)” value (Caco-2 cells) is reported as “M (M (Moderate permeability)”: 1≤A2B (B2A)≤5)”. The “Caco-2 B2A (10^−6 cm/s)” value (Caco-2 cells) was “H (H (High permeability)”: A2B (B2A)>5)” and the “hHep Cl (mL/min/kg)” value (human hepatocyte) was “L (L (Low Cl)”: Hep Cl (mL/min/kg)<6.3)”.

For `[2H]C1([2H])OC([2H])([2H])C([2H])([2H])N(c2cc3c(cn2)NC(c2c(F)cccc2F)=Nc2cn[nH]c2-3)C1([2H])[2H]` [Example 20, 2,2,3,3,5,5,6,6-octadeuterio-4-[8-(2,6-difluorophenyl)-3,4,7,9,12-pentazatricyclo[8.4.0.02,6]tetradeca-1(10),2(6),4,7,11,13-hexaen-13-yl]morpholine], the IC50 [1] was under 1 nM, the “Caco-2 ER” value (Caco-2 cells) was “L (L (Likely)”: ER≥2.5)” and the “Caco-2 A2B (10^−6 cm/s)” value (Caco-2 cells) was “M (M (Moderate permeability)”: 1≤A2B (B2A)≤5)”. The “Caco-2 B2A (10^−6 cm/s)” value (Caco-2 cells) was “H (H (High permeability)”: A2B (B2A)>5)” and the “hHep Cl (mL/min/kg)” value (human hepatocyte) was “L (L (Low Cl)”: Hep Cl (mL/min/kg)<6.3)”.

With `Fc1cccc(F)c1C1=Nc2c(Cl)n[nH]c2-c2cc(N3CCOCC3)ncc2N1` [Example 23, 4-(3-chloro-5-(2,6-difluorophenyl)-1,6-dihydropyrazolo[4,3-d]pyrido[4,3-f][1,3]diazepin-9-yl)morpholine] the IC50 [1] was under 1 nM, the “Caco-2 ER” value (Caco-2 cells) was “L (L (Likely)”: ER≥2.5)” and the “Caco-2 A2B (10^−6 cm/s)” value (Caco-2 cells) was “M (M (Moderate permeability)”: 1≤A2B (B2A)≤5)”. The “Caco-2 B2A (10^−6 cm/s)” value (Caco-2 cells) was “H (H (High permeability)”: A2B (B2A)>5)” and the “hHep Cl (mL/min/kg)” value (human hepatocyte) was “L (L (Low Cl)”: Hep Cl (mL/min/kg)<6.3)”.

`C[C@H]1CN(c2cc3c(cn2)NC(c2c(F)cccc2F)=Nc2c(Cl)n[nH]c2-3)C[C@H](C)O1` [Example 26, (2S,6S)-4-(3-chloro-5-(2,6-difluorophenyl)-1,6-dihydropyrazolo[4,3-d]pyrido[4,3-f][1,3]diazepin-9-yl)-2,6-dimethylmorpholine] was tested, and the IC50 [1] was under 1 nM, the “Caco-2 ER” value (Caco-2 cells) was “L (L (Likely)”: ER≥2.5)” and the “Caco-2 A2B (10^−6 cm/s)” value (Caco-2 cells) was “H (H (High permeability)”: A2B (B2A)>5)”. The “Caco-2 B2A (10^−6 cm/s)” value (Caco-2 cells) was “H (H (High permeability)”: A2B (B2A)>5)” and the “hHep Cl (mL/min/kg)” value (human hepatocyte) was “I (I (Intermediate Cl)”: 6.3≤Hep Cl (mL/min/kg)≤14.7)”.

In the case of `[2H]C([2H])([2H])c1n[nH]c2c1N=C(c1c(F)cccc1F)Nc1cnc(N3CCO[C@H](C)C3)cc1-2` [Example 27, (2R)-4-[8-(2,6-difluorophenyl)-5-(trideuteriomethyl)-3,4,7,9,12-pentazatricyclo[8.4.0.02,6]tetradeca-1(10),2(6),4,7,11,13-hexaen-13-y1]-2-methyl-morpholine], the IC50 [1] is reported as under 1 nM, the “Caco-2 ER” value (Caco-2 cells) is reported as “L (L (Likely)”: ER≥2.5)” and the “Caco-2 A2B (10^−6 cm/s)” value (Caco-2 cells) is reported as “H (H (High permeability)”: A2B (B2A)>5)”. For the same compound, the “Caco-2 B2A (10^−6 cm/s)” value (Caco-2 cells) was “H (H (High permeability)”: A2B (B2A)>5)” and the “hHep Cl (mL/min/kg)” value (human hepatocyte) was “L (L (Low Cl)”: Hep Cl (mL/min/kg)<6.3)”.

With `Cc1n[nH]c2c1N=C(c1c(F)cccc1F)Nc1cnc(-c3cnn(CC(F)F)c3)cc1-2` [Example 28, 13-[1-(2,2-difluoroethyl)pyrazol-4-y1]-8-(2,6-difluorophenyl)-5-methyl-3,4,7,9,12-pentazatricyclo[8.4.0.02,6]tetradeca-1(10),2(6),4,7,11,13-hexaene] the IC50 [1] was under 1 nM, the “Caco-2 ER” value (Caco-2 cells) was “L (L (Likely)”: ER≥2.5)” and the “Caco-2 A2B (10^−6 cm/s)” value (Caco-2 cells) was “M (M (Moderate permeability)”: 1≤A2B (B2A)≤5)”. For the same compound, the “Caco-2 B2A (10^−6 cm/s)” value (Caco-2 cells) was “H (H (High permeability)”: A2B (B2A)>5)” and the “hHep Cl (mL/min/kg)” value (human hepatocyte) was “L (L (Low Cl)”: Hep Cl (mL/min/kg)<6.3)”.

With `Fc1cccc(F)c1C1=Nc2cn[nH]c2-c2cc(N3CCOCC3)ncc2N1` [Example 33, 4-[8-(2,6-difluorophenyl)-3,4,7,9,12-pentazatricyclo[8.4.0.02,6]tetradeca-1(10),2(6),4,7,11,13-hexaen-13-yl]morpholine] the IC50 [1] was under 1 nM, the “Caco-2 ER” value (Caco-2 cells) was “L (L (Likely)”: ER≥2.5)” and the “Caco-2 A2B (10^−6 cm/s)” value (Caco-2 cells) was “M (M (Moderate permeability)”: 1≤A2B (B2A)≤5)”. For the same compound, the “Caco-2 B2A (10^−6 cm/s)” value (Caco-2 cells) was “H (H (High permeability)”: A2B (B2A)>5)” and the “hHep Cl (mL/min/kg)” value (human hepatocyte) was “L (L (Low Cl)”: Hep Cl (mL/min/kg)<6.3)”.

In the case of `Cc1n[nH]c2c1N=C(c1c(F)cccc1F)Nc1c-2cc(N2CCO[C@@H](CO)C2)nc1C` [Example 37, (R)-(4-(5-(2,6-difluorophenyl)-3,7-dimethyl-1,6-dihydropyrazolo[4,3-d]pyrido[4,3-f][1,3]diazepin-9-yl)morpholin-2-y1)methanol], the IC50 [1] is reported as under 1 nM, the “Caco-2 ER” value (Caco-2 cells) is reported as “L (L (Likely)”: ER≥2.5)” and the “Caco-2 A2B (10^−6 cm/s)” value (Caco-2 cells) is reported as “M (M (Moderate permeability)”: 1≤A2B (B2A)≤5)”. For the same compound, the “Caco-2 B2A (10^−6 cm/s)” value (Caco-2 cells) was “H (H (High permeability)”: A2B (B2A)>5)” and the “hHep Cl (mL/min/kg)” value (human hepatocyte) was “L (L (Low Cl)”: Hep Cl (mL/min/kg)<6.3)”.

Source: US20240228493A1, “LRRK2 INHIBITORS AND USES THEREOF” (NEURON23, ICN., priority 2022, published 2024)
